Measurements taken from EP1095021B1, “QUINOLINE DERIVATIVES” (Active Biotech AB, priority 1998, dated 2000).

Experiments:
[1] = test system: acute experimental autoimmune encephalomyelitis (aEAE); assay: Acute experimental autoimmune encephalomyelitis (aEAE) inhibition; assay type: in vivo, SJL/N female mice; conditions: for % aEAE Inhibition: percent inhibition of clinical scores compared to saline treated controls
foetuses = assay: Teratogenic effects in the rat; assay type: in vivo; conditions: for % malformed fetuses: day 8 to 14 of pregnancy
[2] = test system: Beagle Pain Syndrome (BPS); assay: Beagle Pain Syndrome (BPS); assay type: in vivo; conditions: different breeds of beagle dogs
Description: The disease is reflected by clinical and laboratory manifestations justifying BPS as a model for the flu-like syndrome induced by roquinimex in man.
Beagle Pain Syndrome (BPS).
The compounds were administrated intravenously to beagle dogs. The dosage was given for five consecutive days. The dogs were evaluated for clinical and laboratory signs of the pain syndrome, e.g., fever, increased erythrocyte sedimentation rate (ESR), alkaline phosphate (AP), induction of acute phase proteins and vasculitis

SMILES	% aEAE Inhibition ([1]; Dose 0.2 mg/kg p.o.) [%]	% aEAE Inhibition ([1]; Dose 1 mg/kg p.o.) [%]	% aEAE Inhibition ([1]; Dose 5 mg/kg p.o.) [%]	% malformed fetuses (foetuses; Dose 6 mg/kg p.o.) [%]	% malformed fetuses (foetuses; Dose 30 mg/kg p.o.) [%]	inhibition of acute experimental autoimmune encephalomyelitis (aEAE) ([1]; at ≥5 mg/kg, treatment control)	% malformed fetuses (foetuses; Dose 10 mg/kg p.o.) [%]	teratogenic effect (foetuses; rat)	Beagle Pain Syndrome (BPS) [2]
COc1cccc2c1c(O)c(C(=O)N(C)c1ccc(C(F)(F)F)cc1)c(=O)n2C [Compound A, N-methyl-N-(4-trifluoromethyl-phenyl)-1,2-dihydro-4-hydroxy-5-methoxy-1-methyl-2-oxo-quinoline-3-carboxamide]	66	86	99	4	2				
CN(C(=O)c1c(O)c2c(Cl)cccc2n(C)c1=O)c1ccc(F)cc1F [Compound B, N-methyl-N-(2,4-difluorophenyl)-1,2-dihydro-4-hydroxy-5-chloro-1-methyl-2-oxo-quinoline-3-carboxamide]	59	96	100	0					
CN(C(=O)c1c(O)c2c(Cl)cccc2n(C)c1=O)c1ccccc1 [Compound C, N-Methyl-N-phenyl-1,2-dihydro-4-hydroxy-5-chloro-1-methyl-2-oxo-quinoline-3-carboxamide]	92	100		37					
CN(C(=O)c1c(O)c2ccccc2n(C)c1=O)c1ccccc1 [Compound D, N-phenyl-N-methyl-1,2-dihydro-4-hydroxy-1-methyl-2-oxo-quinoline-3-carboxamide]	35	40	69		30	more than 50%	9	teratogenic	induce the Beagle Pain Syndrome (BPS)
